Test results from patent US8163728B2, “Pyrazoles” (Hoffmann-La Roche Inc., priority 2009, dated 2012).

biological target: T1, GABA A α5 (Homo sapiens, UniProt P18507+P31644); assay: [3H]flumazenil competition binding, human GABA A α5β3γ2 receptors in HEK293 cell membranes; settings: human receptor α5β3γ2 transiently transfected in HEK293; 0.5 nM [3H]flumazenil; 1 hour at 4° C.; means of two determinations; read-out: hKi GABA A α5
T1 construct: expressed in transfected cells; host or cells: HEK293 cells, transiently transfected; membranes prepared from cell pellets
Summary of the method: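 Competition with [3H]flumazenil for binding to membranes of HEK293 cells transiently expressing human α5β3γ2, in Krebs-tris buffer pH 7.5. Incubated to equilibrium 1 h at 4 °C, filtered and scintillation-counted; Ki values are means of two determinations.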

Compound | Ki [nM]
Cc1onc(-c2ccc(F)cc2)c1/C=C/c1cc(C(=O)NC(C)(C)CO)n(C)n1 [Example 143, 5-{(E)-2-[3-(4-Fluoro-phenyl)-5-methyl-isoxazol-4-yl]vinyl}-2-methyl-2H-pyrazole-3-carboxylic acid (2-hydroxy-1,1-dimethyl-ethyl)-amide] | 7.4
Cc1onc(-c2ccc(F)cc2)c1CNc1cc(C(=O)NCC(C)(C)O)n(C)n1 [Example 144, 5-{[3-(4-Fluoro-phenyl)-5-methyl-isoxazol-4-ylmethyl]-amino}-2-methyl-2H-pyrazole-3-carboxylic acid (2-hydroxy-2-methyl-propyl)-amide] | 29.3
Cc1onc(-c2ccc(F)cc2)c1CNc1cc(C(N)=O)n(C)n1 [Example 145, 5-{[3-(4-Fluoro-phenyl)-5-methyl-isoxazol-4-ylmethyl]-amino}-2-methyl-2H-pyrazole-3-carboxylic acid amide] | 69.6
Cc1onc(-c2ccc(F)cc2)c1CNc1cc(C(=O)NCC(F)(F)F)n(C)n1 [Example 146, 5-{[3-(4-Fluoro-phenyl)-5-methyl-isoxazol-4-ylmethyl]-amino}-2-methyl-2H-pyrazole-3-carboxylic acid (2,2,2-trifluoro-ethyl)-amide] | 15.2
Cc1onc(-c2ccc(F)cc2)c1CNc1cc(C(=O)NC2CCOCC2)n(C)n1 [Example 147, 5-{[3-(4-Fluoro-phenyl)-5-methyl-isoxazol-4-ylmethyl]-amino}-2-methyl-2H-pyrazole-3-carboxylic acid (tetrahydro-pyran-4-yl)-amide] | 4.7
Cc1onc(-c2ccc(F)cc2)c1CNc1cc(C(=O)NC2(C)COC2)n(C)n1 [Example 148, 5-{[3-(4-Fluoro-phenyl)-5-methyl-isoxazol-4-ylmethyl]-amino}-2-methyl-2H-pyrazole-3-carboxylic acid (3-methyl-oxetan-3-yl)-amide] | 5.4
Cc1onc(-c2ccc(F)cc2)c1CNc1cc(C(=O)N2CC3(COC3)C2)n(C)n1 [Example 149, (5-{[3-(4-Fluoro-phenyl)-5-methyl-isoxazol-4-ylmethyl]-amino}-2-methyl-2H-pyrazol-3-yl)-(2-oxa-6-aza-spiro[3.3]hept-6-yl)-methanone] | 67.5
Cc1onc(-c2ccc(F)cc2)c1CNc1cc(C(=O)NC(C)CO)n(C)n1 (centres unmarked) [Example 150, 5-{[3-(4-Fluoro-phenyl)-5-methyl-isoxazol-4-ylmethyl]-amino}-2-methyl-2H-pyrazole-3-carboxylic acid (2-hydroxy-1-methyl-ethyl)-amide] | 26.2
Cc1onc(-c2ccc(F)cc2)c1CNc1cc(C(=O)NC(C)C)n(C)n1 [Example 151, 5-{[3-(4-Fluoro-phenyl)-5-methyl-isoxazol-4-ylmethyl]-amino}-2-methyl-2H-pyrazole-3-carboxylic acid isopropylamide] | 13.6
Cc1onc(-c2ccc(F)cc2)c1CNc1cc(C(=O)NCC(C)(C)O)[nH]n1 [Example 152, 5-{[3-(4-Fluoro-phenyl)-5-methyl-isoxazol-4-ylmethyl]-amino}-2H-pyrazole-3-carboxylic acid (2-hydroxy-2-methyl-propyl)-amide] | 20.9
Cc1onc(-c2ccc(F)cc2)c1CNc1cc(C(N)=O)[nH]n1 [Example 153, 5-{[3-(4-Fluoro-phenyl)-5-methyl-isoxazol-4-ylmethyl]-amino}-2H-pyrazole-3-carboxylic acid amide] | 43.4
Cc1onc(-c2ccc(F)cc2)c1CNc1cc(C(=O)NC(C)C)[nH]n1 [Example 154, 5-{[3-(4-Fluoro-phenyl)-5-methyl-isoxazol-4-ylmethyl]-amino}-2H-pyrazole-3-carboxylic acid isopropylamide] | 13
CCNC(=O)c1cc(NCc2c(-c3ccc(F)cc3)noc2C)n[nH]1 [Example 155, 5-{[3-(4-Fluoro-phenyl)-5-methyl-isoxazol-4-ylmethyl]-amino}-2H-pyrazole-3-carboxylic acid ethylamide] | 57.1
Cc1onc(-c2ccc(F)cc2)c1CNc1cc(C(=O)NC2CCOCC2)[nH]n1 [Example 156, 5-{[3-(4-Fluoro-phenyl)-5-methyl-isoxazol-4-ylmethyl]-amino}-2H-pyrazole-3-carboxylic acid (tetrahydro-pyran-4-yl)-amide] | 3.9

Further lines, results first:

Ki [nM] | Compound
51 | Cc1onc(-c2ccc(F)cc2)c1CNc1cc(C(=O)NC(C)CO)[nH]n1 (centres unmarked) [Example 157, 5-{[3-(4-Fluoro-phenyl)-5-methyl-isoxazol-4-ylmethyl]-amino}-2H-pyrazole-3-carboxylic acid (2-hydroxy-1-methyl-ethyl)-amide]
22 | Cc1onc(-c2ccc(F)cc2)c1CNc1cc(C(=O)N2CC3(COC3)C2)[nH]n1 [Example 158, (5-{[3-(4-Fluoro-phenyl)-5-methyl-isoxazol-4-ylmethyl]-amino}-2H-pyrazol-3-yl)-(2-oxa-6-aza-spiro[3.3]hept-6-yl)-methanone]
39.9 | Cc1onc(-c2ccccn2)c1CNc1cc(C(=O)NC(C)C)n(C)n1 [Example 159, N-isopropyl-1-methyl-3-((5-methyl-3-(pyridin-2-yl)isoxazol-4-yl)methylamino)-1H-pyrazole-5-carboxamide]
25.4 | Cc1onc(-c2ccccn2)c1CNc1cc(C(=O)NC2CCOCC2)n(C)n1 [Example 160, 2-Methyl-5-[(5-methyl-3-pyridin-2-yl-isoxazol-4-ylmethyl)-amino]-2H-pyrazole-3-carboxylic acid (tetrahydro-pyran-4-yl)-amide]
19.4 | Cc1onc(-c2ccccn2)c1CNc1cc(C(=O)NN2CCOCC2)n(C)n1 [Example 161, 1-Methyl-3-((5-methyl-3-(pyridin-2-yl)isoxazol-4-yl)methylamino)-N-morpholino-1H-pyrazole-5-carboxamide]
30.3 | Cc1onc(-c2ccccn2)c1CNc1cc(C(=O)NC2(C)COC2)n(C)n1 [Example 162, 1-Methyl-3-((5-methyl-3-(pyridin-2-yl)isoxazol-4-yl)methylamino)-N-(3-methyloxetan-3-yl)-1H-pyrazole-5-carboxamide]
99.5 | Cc1onc(-c2ccc(F)cn2)c1CNc1cc(C(=O)NC(C)C)n(C)n1 [Example 163, 3-((3-(5-Fluoropyridin-2-yl)-5-methylisoxazol-4-yl)methylamino)-N-isopropyl-1-methyl-1H-pyrazole-5-carboxamide]
11.9 | Cc1onc(-c2ccc(F)cn2)c1CNc1cc(C(=O)NC2CCOCC2)n(C)n1 [Example 164, 3-((3-(5-Fluoropyridin-2-yl)-5-methylisoxazol-4-yl)methylamino)-1-methyl-N-(tetrahydro-2H-pyran-4-yl)-1H-pyrazole-5-carboxamide]
41.1 | Cc1onc(-c2ccc(F)cn2)c1CNc1cc(C(=O)NC2CC2)n(C)n1 [Example 165, N-Cyclopropyl-3-((3-(5-fluoropyridin-2-yl)-5-methylisoxazol-4-yl)methylamino)-1-methyl-1H-pyrazole-5-carboxamide]
55.6 | Cc1onc(-c2ccc(F)cn2)c1CNc1cc(C(=O)NCC2CC2)n(C)n1 [Example 166, N-(Cyclopropylmethyl)-3-((3-(5-fluoropyridin-2-yl)-5-methylisoxazol-4-yl)methylamino)-1-methyl-1H-pyrazole-5-carboxamide]
16.2 | Cc1onc(-c2ccc(F)cn2)c1CNc1cc(C(=O)NC2(C)COC2)n(C)n1 [Example 167, 3-((3-(5-Fluoropyridin-2-yl)-5-methylisoxazol-4-yl)methylamino)-1-methyl-N-(3-methyloxetan-3-yl)-1H-pyrazole-5-carboxamide]
77.7 | Cc1onc(-c2ccc(F)cn2)c1CNc1cc(C(=O)N2CC3(COC3)C2)n(C)n1 [Example 168, (3-((3-(5-Fluoropyridin-2-yl)-5-methylisoxazol-4-yl)methylamino)-1-methyl-1H-pyrazol-5-yl)(2-oxa-6-azaspiro[3.3]heptan-6-yl)methanone]
